Assay results: paper PMC11945486, “TAS1R2/TAS1R3 Single-Nucleotide Polymorphisms Affect Sweet Taste Receptor Activation by Sweeteners: The SWEET Project” (Nutrients, 2025)
Where two headings read alike, the source gives them in different places. Each block holds one molecule with its values, some of them ahead of it. No end group written: not given here.

Molecular target: T1, human TAS1R2-WT/TAS1R3-A735T (Homo sapiens, UniProt Q7RTX0+Q8TE23, A735T)
T1 construct: expressed in transfected cells; host or cells: HEK293T stably expressing Gα16gust44
T1 sequence (Q8TE23 20-839): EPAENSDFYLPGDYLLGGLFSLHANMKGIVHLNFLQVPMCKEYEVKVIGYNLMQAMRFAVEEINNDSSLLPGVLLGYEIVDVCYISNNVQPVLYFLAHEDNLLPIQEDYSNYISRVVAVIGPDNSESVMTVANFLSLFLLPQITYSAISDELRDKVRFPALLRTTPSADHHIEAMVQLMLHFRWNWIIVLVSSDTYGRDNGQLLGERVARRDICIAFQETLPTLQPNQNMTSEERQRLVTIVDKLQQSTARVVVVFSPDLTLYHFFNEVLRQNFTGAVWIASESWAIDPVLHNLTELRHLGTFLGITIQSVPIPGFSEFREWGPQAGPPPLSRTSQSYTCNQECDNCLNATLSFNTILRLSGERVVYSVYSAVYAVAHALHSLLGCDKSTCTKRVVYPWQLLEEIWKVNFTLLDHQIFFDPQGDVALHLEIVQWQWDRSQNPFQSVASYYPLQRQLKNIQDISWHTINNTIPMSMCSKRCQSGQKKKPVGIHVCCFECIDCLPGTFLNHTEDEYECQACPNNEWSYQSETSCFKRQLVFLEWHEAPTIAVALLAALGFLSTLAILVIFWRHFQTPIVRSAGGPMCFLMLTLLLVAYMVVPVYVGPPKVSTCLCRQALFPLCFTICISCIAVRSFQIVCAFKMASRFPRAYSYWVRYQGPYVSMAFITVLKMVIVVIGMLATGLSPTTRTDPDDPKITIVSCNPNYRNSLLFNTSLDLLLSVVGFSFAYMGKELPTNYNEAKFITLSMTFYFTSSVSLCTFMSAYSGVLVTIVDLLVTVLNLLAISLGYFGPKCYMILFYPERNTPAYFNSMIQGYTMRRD
T1 sequence (Q7RTX0 21-852 A735T): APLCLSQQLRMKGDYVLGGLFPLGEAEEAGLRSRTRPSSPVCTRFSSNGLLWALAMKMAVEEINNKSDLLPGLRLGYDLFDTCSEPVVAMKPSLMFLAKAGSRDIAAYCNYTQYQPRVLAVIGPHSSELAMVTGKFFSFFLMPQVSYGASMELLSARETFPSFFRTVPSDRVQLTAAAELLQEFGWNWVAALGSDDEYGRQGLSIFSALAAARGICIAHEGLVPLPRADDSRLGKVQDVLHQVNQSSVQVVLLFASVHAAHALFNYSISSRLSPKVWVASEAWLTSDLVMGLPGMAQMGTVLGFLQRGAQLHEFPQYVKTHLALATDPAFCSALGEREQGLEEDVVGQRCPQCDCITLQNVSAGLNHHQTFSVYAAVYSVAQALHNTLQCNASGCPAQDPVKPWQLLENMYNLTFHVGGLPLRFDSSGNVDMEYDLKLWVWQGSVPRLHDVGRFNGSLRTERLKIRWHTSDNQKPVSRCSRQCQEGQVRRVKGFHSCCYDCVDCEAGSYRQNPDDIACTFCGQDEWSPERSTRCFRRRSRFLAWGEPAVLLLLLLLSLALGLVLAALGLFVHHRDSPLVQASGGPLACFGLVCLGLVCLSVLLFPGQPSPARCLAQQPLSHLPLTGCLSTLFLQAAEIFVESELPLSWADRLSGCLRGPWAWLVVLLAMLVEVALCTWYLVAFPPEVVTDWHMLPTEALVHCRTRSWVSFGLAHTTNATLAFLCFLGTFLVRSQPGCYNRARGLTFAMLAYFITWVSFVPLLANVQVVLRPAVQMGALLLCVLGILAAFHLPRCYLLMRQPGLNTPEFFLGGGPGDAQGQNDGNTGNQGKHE
Experiment: Calcium mobilisation assay, TAS1R2-WT with TAS1R3 variant A735T
Type: cell-based
Conditions: for Max ΔF/F0: maximal signal amplitude
Source text: The coding sequences for TAS1R2 and TAS1R3 were commercially synthesised, and the human codon was optimised for expression in human cells. The coding sequences of human TAS1R2 and TAS1R3 were subcloned and inserted into the mammalian expression vectors pcDNA6/myc-HisA and pcDNA4/myc-HisA (Invitrogen; Thermo Fisher Scientific; Illkirch, France) between the EcoRI and NotI restriction sites, generating the plasmids pcDNA6-TAS1R2 and pcDNA4-TAS1R3, respectively. To increase protein expression in mammalian cells, an upstream start codon was used, which was a sequence called MAX, corresponding to the QBI SP163 element also described in pcDNA4-HisMax (Invitrogen; Thermo Fisher Scientific; Illkirch, France). To measure the expression level of the receptor by immunohistochemistry, we used the FLAG sequence ([…]) in the C-terminal position, which encodes the FLAG tag epitope. SNP variants of TAS1R2 and TAS1R3 were constructed based on […], respectively, using site-directed mutagenesis (Genewiz; Leipzig, Germany).
The HEK293T cells were kindly provided by Jay P. Slack (Givaudan Flavors Corporation; Cincinnati, OH, USA). HEK293T cells stably transfected with Gα16gust44 [43, 67] were seeded in poly-D-lysine-coated clear-bottom black 96-well plates (0.35 × 10^5 cells/well) in high-glucose DMEM supplemented with 2 mM GlutaMAX, 10% dialysed foetal bovine serum with penicillin/streptomycin and G418 (400 μg/mL) at 37 °C and 6.3% CO2 in a humidified atmosphere as previously reported. […] As a negative control, HEK293T cells were mock-transfected with the empty expression vector. After a further 24 h of incubation, the HEK293T cells were washed with C1 buffer (130 mM NaCl, 5 mM KCl, 10 mM HEPES pH 7.4 and 2 mM CaCl2). The 96-well plates containing the cells were then stimulated with sweet-tasting compounds. […] Different concentration ranges were tested depending on the sweet compound injected. The Ca^2+ changes were expressed as fractional changes in fluorescent light intensity: ΔF/F = (F − F0)/F0, where F was the fluorescent light intensity at each point, and F0 was the value of emitted fluorescent light prior to stimulus application. To calculate dose–response relationships, the changes in fluorescence upon stimulus application were averaged, mock-subtracted and baseline-corrected. The dose–response data obtained were adjusted using a 4-parameter logistic equation. The half-maximal effective concentrations (EC50 values) and maximal signal amplitudes were calculated using SigmaPlot software (version 15.0) (Systat Software; San Jose, CA, USA).
For in vitro calcium mobilisation assay performed on hTAS1R2-SNPs, hTAS1R3-SNPs and mTAS1R3-I60T, 6 to 7 concentrations were tested for each sweet compound, plus buffer alone. All concentration–receptor combinations were measured in duplicate, and each experiment was repeated at least 4 times (8 wells/concentration). Results were expressed for each concentration as ΔF/F mean ± SEM and represented as dose–response curves.

Molecule: CC1=CC(=O)NS(=O)(=O)O1 [Acesulfame K, acesulfame K]
R1 = Variant EC50/WT EC50: 1.1 | Max ΔF/F0: 0.47 ± 0.02 | EC50 (read-out: EC50): 685 ± 56 µM

Molecule: O=S(=O)(O)NC1CCCCC1 [Cyclamate, cyclamate]
EC50 (read-out: EC50): 1870 ± 32 µM

Molecule: C[C@H](CC[C@@H](O[C@@H]1O[C@H](CO[C@@H]2O[C@H](CO)[C@@H](O)[C@H](O)[C@H]2O)[C@@H](O)[C@H](O)[C@H]1O[C@@H]1O[C@H](CO)[C@@H](O)[C@H](O)[C@H]1O)C(C)(C)O)[C@H]1CC[C@@]2(C)[C@@H]3CC=C4[C@@H](CC[C@H](O[C@@H]5O[C@H](CO[C@@H]6O[C@H](CO)[C@@H](O)[C@H](O)[C@H]6O)[C@@H](O)[C@H](O)[C@H]5O)C4(C)C)[C@]3(C)[C@H](O)C[C@]12C [Mogroside V, mogroside V]
R1 = Variant EC50/WT EC50: 0.9 | Max ΔF/F0: 1.17 ± 0.03 | EC50 (read-out: EC50): 28.7 ± 2.2 µM

Molecule: COc1ccc(CCC(=O)c2c(O)cc(O[C@@H]3O[C@H](CO)[C@@H](O)[C@H](O)[C@H]3O[C@@H]3O[C@@H](C)[C@H](O)[C@@H](O)[C@H]3O)cc2O)cc1O [NHDC, neohesperidin dihydrochalcone]
R1 = Variant EC50/WT EC50: 0.8 | Max ΔF/F0: 1.00 ± 0.01 | EC50 (read-out: EC50): 42.2 ± 1.4 µM

Molecule: COC(=O)[C@H](Cc1ccccc1)NC(=O)[C@H](CC(=O)O)NCCC(C)(C)C [Neotame]
R1 = Variant EC50/WT EC50: 0.8 | Max ΔF/F0: 0.61 ± 0.02 | EC50 (read-out: EC50): 0.93 ± 0.07 µM

Molecule: C=C(C)[C@@H]1CC=C(/C=N/O)CC1 [Perillartine, perillartine]
R1 = Variant EC50/WT EC50: 0.9 | Max ΔF/F0: 1.56 ± 0.23 | EC50 (read-out: EC50): 12.6 ± 5.9 µM

Continued, values first:

R1 = Variant EC50/WT EC50: 0.6 | Max ΔF/F0: 1.24 ± 0.04 | EC50 (read-out: EC50): 23 ± 1.9 µM
Molecule: C=C1C[C@@]23CC[C@H]4[C@@](C)(CCC[C@@]4(C)C(=O)O[C@@H]4O[C@H](CO)[C@@H](O)[C@H](O[C@@H]5O[C@H](CO)[C@@H](O)[C@H](O)[C@H]5O)[C@H]4O[C@@H]4O[C@H](CO)[C@@H](O)[C@H](O)[C@H]4O)[C@@H]2CC[C@]1(O[C@@H]1O[C@H](CO)[C@@H](O)[C@H](O[C@@H]2O[C@H](CO)[C@@H](O)[C@H](O)[C@H]2O)[C@H]1O[C@@H]1O[C@H](CO)[C@@H](O)[C@H](O)[C@H]1O)C3 [Rebaudioside M, rebaudioside M]

R1 = Variant EC50/WT EC50: 1.4 | Max ΔF/F0: 0.70 ± 0.01 | EC50 (read-out: EC50): 151 ± 4 µM
Molecule: OC[C@H]1O[C@H](O[C@]2(CCl)O[C@H](CCl)[C@@H](O)[C@@H]2O)[C@H](O)[C@@H](O)[C@H]1Cl [Sucralose]

R1 = Variant EC50/WT EC50: 0.7 | EC50 (brazzein): 82.7 ± 14.9 µg/mL | Max ΔF/F0: 0.90 ± 0.05
Molecule: brazzein (QDKCKKVYENYPVSKCQLANQCNYDCKLDKHARSGECFYDEKRNLQCICDYCEY; ends and bridges not checked; cysteine pairing not given here; UniProt P56552 1-54, looked up) [sweet-tasting protein obtained by recombinant production using the yeast Pichia pastoris]

R1 = Variant EC50/WT EC50: 0.7 | Max ΔF/F0: 0.70 ± 0.06
Molecule: thaumatin

EC50 (read-out: EC50): 7.2 ± 1.5 µM
B1: thaumatin (protein)
chain: ATFEIVNRCSYTVWAAASKGDAALDAGGRQLNSGESWTINVEPGTKGGKIWARTDCYFDDSGSGICKTGDCGGLLRCKRFGRPPTTLAEFSLNQYGKDYIDISNIKGFNVPMDFSPTTRGCRGVRCAADIVGQCPAKLKAPGGGCNDACTVFQTSEYCCTTGKCGPTEYSRFFKRLCPDAFSYVLDKPTTVTCPGSSNYRVTFCPTA
modifications: Eight disulfides
notes: sweet-tasting plant protein, E957
